Experiment [1] addresses T1, steroid sulphatase (STS) (Homo sapiens, UniProt P08842).
T1 construct: Intact monolayers of JEG3 cells in triplicate 25 cm^2 tissue culture flasks; host or cells: JEG3 choriocarcinoma cells
T1 sequence (P08842 22-583): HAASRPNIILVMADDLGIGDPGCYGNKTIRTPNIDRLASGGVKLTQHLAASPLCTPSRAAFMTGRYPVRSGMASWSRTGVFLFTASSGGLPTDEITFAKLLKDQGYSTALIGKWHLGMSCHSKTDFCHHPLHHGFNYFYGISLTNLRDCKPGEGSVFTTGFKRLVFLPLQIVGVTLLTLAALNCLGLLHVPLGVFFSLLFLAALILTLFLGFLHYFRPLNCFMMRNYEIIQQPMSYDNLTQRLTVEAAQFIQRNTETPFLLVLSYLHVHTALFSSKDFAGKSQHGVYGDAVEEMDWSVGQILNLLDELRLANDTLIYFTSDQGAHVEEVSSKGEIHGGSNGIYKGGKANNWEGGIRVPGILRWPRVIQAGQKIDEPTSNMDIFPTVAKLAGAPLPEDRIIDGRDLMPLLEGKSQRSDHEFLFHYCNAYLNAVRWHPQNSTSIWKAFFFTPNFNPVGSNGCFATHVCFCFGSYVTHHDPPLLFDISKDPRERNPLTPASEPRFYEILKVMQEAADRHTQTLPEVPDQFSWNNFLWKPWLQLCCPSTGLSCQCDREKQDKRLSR
Briefly: Inhibition of steroid sulphatase activity in JEG3 cells (Protocol 1). Conditions: for inhibition at 10 µM: JEG-3, read-out: % STS INHIBITION (10 μM). The class given is cell-based. On the procedure:
Steroid sulphatase activity is measured in vitro using intact JEG3 choriocarcinoma cells. This cell line may be used to study the control of human breast cancer cell growth.
Cells are maintained in Minimal Essential Medium (MEM) (Flow Laboratories, Irvine, Scotland) containing 20 mM HEPES, 5% foetal bovine serum, 2 mM glutamine, non-essential amino acids and 0.075% sodium bicarbonate. Up to 30 replicate 25 cm2 tissue culture flasks are seeded with approximately 1×10^5 cells/flask using the above medium. Cells are grown to 80% confluency and the medium is changed every third day.
Intact monolayers of JEG3 cells in triplicate 25 cm^2 tissue culture flasks are washed with Earle's Balanced Salt Solution (EBSS from ICN Flow, High Wycombe, U.K.) and incubated for 3-4 hours at 37° C. with 5 pmol (7×10^5 dpm) [6,7-3H]oestrone-3-sulphate (specific activity 60 Ci/mmol from New England Nuclear, Boston, Mass., U.S.A.) in serum-free MEM (2.5 ml) together with oestrone-3-sulphamate (11 concentrations: 0; 1 fM; 0.01 pM; 0.1 pM; 1 pM; 0.01 nM; 0.1 nM; 1 nM; […]). After incubation each flask is cooled and the medium (1 ml) is pipetted into separate tubes containing [14C]oestrone (7×10^3 dpm) (specific activity 97 Ci/mmol from Amersham International Radiochemical Centre, Amersham, U.K.). The mixture is shaken thoroughly for 30 seconds with toluene (5 ml). Experiments have shown that >90% [14C] oestrone and <0.1% [3H]oestrone-3-sulphate is removed from the aqueous phase by this treatment. A portion (2 ml) of the organic phase is removed, evaporated and the 3H and 14C content of the residue determined by scintillation spectrometry. The mass of oestrone-3-sulphate hydrolysed was calculated from the 3H counts obtained (corrected for the volumes of the medium and organic phase used, and for recovery of [14C] oestrone added) and the specific activity of the substrate. Each batch of experiments includes incubations of microsomes prepared from a sulphatase-positive human placenta (positive control) and flasks without cells (to assess apparent non-enzymatic hydrolysis of the substrate). The number of cell nuclei per flask is determined using a Coulter Counter after treating the cell monolayers with Zaponin. One flask in each batch is used to assess cell membrane status and viability using the Trypan Blue exclusion method (Phillips, H. J. (1973) In: Tissue culture and applications, [eds: Kruse, D. F. & Patterson, M. K.]; pp. 406-408; Academic Press, New York).
Results for steroid sulphatase activity are expressed as the mean±1 S.D. of the total product (oestrone+oestradiol) formed during the incubation period (3-4 hours) calculated for […] and, for values showing statistical significance, as a percentage reduction (inhibition) over incubations containing no oestrone-3-sulphamate. Unpaired Student's t-test was used to test the statistical significance of results.

The target of experiment [2] is T2, aromatase (Homo sapiens, UniProt P11511).
T2 construct: Intact monolayers of JEG3 cells (2.5×10^6 cells) in triplicate 25 cm^2 tissue culture flasks; host or cells: JEG3 choriocarcinoma cells
T2 sequence (P11511 1-503): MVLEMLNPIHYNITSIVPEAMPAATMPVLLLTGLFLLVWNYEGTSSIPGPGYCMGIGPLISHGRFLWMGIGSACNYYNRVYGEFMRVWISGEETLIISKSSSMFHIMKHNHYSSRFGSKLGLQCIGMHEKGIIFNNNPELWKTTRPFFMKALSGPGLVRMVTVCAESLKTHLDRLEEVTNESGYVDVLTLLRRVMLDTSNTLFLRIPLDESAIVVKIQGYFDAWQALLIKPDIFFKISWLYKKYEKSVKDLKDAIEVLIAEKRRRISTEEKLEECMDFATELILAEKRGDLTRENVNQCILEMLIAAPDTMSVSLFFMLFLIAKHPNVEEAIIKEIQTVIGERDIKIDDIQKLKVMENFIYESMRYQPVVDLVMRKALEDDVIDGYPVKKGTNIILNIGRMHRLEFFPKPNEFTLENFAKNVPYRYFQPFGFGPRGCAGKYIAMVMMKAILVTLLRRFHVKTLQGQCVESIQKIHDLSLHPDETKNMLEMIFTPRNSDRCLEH
The experiment is described as follows: Aromatase activity in JEG3 choriocarcinoma cells (Protocol 6). It counts as cell-based.
Procedure: Aromatase activity is measured in JEG3 choriocarcinoma cells, obtained from the ATCC. […] Cells are maintained in Minimal Essential Medium (MEM, Flow Laboratories, Irvine, Scotland) containing 20 mM HEPES, 10% foetal bovine serum, 2 mM glutamine, non-essential amino acids and 0.075% sodium bicarbonate. Intact monolayers of JEG3 cells (2.5×10^6 cells) in triplicate 25 cm^2 tissue culture flasks are washed with Earle's Balanced salt solution (EBSS, from ICN Flow, High Wycombe, UK) and incubated with [1β-^3H] androstenedione (2-5 nM, 26 Ci/mmol, New England Nuclear, Boston, Mass., USA) for 30 min with inhibitors over the range of 10 pm-10 μM. During the aromatase reaction, ^3H2O is liberated which can he quantified using a liquid scintillation spectrometer (Beckman-Coulter, High Wycombe, Bucks. UK). […] The number of cell nuclei per flask is determined using a Coulter Counter after treating the cell monolayers with Z aponin.
Unpaired Student's t test was used to test the statistical significance of results. IC50 values were calculated as the concentration of inhibitor required to obtain a 50% inhibition of aromatase activity.

Experiment [3] concerns the target T3, steroid sulphatase (Homo sapiens, UniProt P08842).
T3 sequence (P08842 22-583): T1 sequence (P08842 22-583)
Conditions: versus EMATE; cited from earlier work.

Experiment [4] relates to uterus. Particulars: cited from earlier work.
For experiment [5], the target named is T4, E1-STS (Homo sapiens, UniProt P08842).
T4 construct: host or cells: MCF-7 cells
T4 sequence (P08842 22-583): T1 sequence (P08842 22-583)
Particulars: 0.1 nM; cited from earlier work.

Experiment [6] has as its target T5, oestrone sulphatase (STS) (Rattus norvegicus, UniProt P15589).
T5 construct: samples of liver tissue were obtained and oestrone sulphatase activity assayed; from tissue; host or cells: rat liver
T5 sequence (P15589 20-577): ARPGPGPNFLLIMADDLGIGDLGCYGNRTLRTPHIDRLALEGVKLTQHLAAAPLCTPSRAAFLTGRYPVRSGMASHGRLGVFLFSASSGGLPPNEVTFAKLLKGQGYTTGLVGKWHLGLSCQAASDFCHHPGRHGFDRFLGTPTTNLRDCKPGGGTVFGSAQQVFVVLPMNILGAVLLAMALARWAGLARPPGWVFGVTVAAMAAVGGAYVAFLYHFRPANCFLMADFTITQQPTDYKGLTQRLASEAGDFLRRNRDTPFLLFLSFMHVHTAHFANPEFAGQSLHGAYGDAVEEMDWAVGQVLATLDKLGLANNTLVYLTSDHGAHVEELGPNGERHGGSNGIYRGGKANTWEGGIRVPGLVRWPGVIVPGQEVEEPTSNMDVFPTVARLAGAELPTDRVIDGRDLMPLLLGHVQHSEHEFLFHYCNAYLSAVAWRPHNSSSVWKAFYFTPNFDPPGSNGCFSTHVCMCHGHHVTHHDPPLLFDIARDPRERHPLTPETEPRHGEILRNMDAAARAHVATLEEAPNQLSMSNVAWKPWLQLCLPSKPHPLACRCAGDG
The experiment is described as follows: Inhibition of oestrone sulphatase activity in vivo (Protocol 3). On the procedure: The compounds of the present invention may be studied using an animal model, in particular in ovariectomised rats. In this model compounds which are oestrogenic stimulate uterine growth.
At the end of the study samples of liver tissue were obtained and oestrone sulphatase activity assayed using 3H oestrone sulphate as the substrate as previously described (see PCT/GB95/02638).
In vivo data were recorded using the above described aromatase and STS animals assays. The relevant compounds were administered and for each animal both aromatase and STS activities were determined.

Setting [7] is: JEG-3, read-out: % AROMATASE INHIBITION (10 μM).
[8] abbreviates: JEG-3; read-out: % AROMATASE INHIBITION (10 μM).

Each structure is given as a SMILES string. Where two headings read alike, the source gives them in different places. A value given as a limit tells only on which side of the number the result lay.

For `COC(=O)c1cc(Cn2cncn2)cc(NS(=O)(=O)c2ccc(OS(N)(=O)=O)c(F)c2)c1` [STX1528, 3-(3-Fluoro-4-sulfamoyloxy-benzenesulfonylamino)-5-[1,2,4]triazol-1-ylmethyl-benzoic acid methyl ester], the results for the inhibition at 10 µM in experiment [1] and in experiment [2] (setting [7]) were less than 10% and 83.4 ± 1.3%, respectively.
In the case of `COc1cc2c(cc1OS(N)(=O)=O)CC[C@@H]1[C@@H]2CC[C@]2(C)C(=O)CC[C@@H]12` [2-methoxyoestrone-3-O-sulphamate], in experiment [3], the “potency as steroid sulphatase inhibitor relative to EMATE” value is reported as “equipotent with EMATE”. Besides, the oestrogenicity result in experiment [4] (rat, in vivo) is given as “devoid of oestrogenicity”.
Regarding `N#CC1(c2cc(CSc3ccc(OS(N)(=O)=O)cc3)cc(Cn3cncn3)c2)CC1` [STX1732, 4-((3-((1H-1,2,4-triazol-1-yl)methyl)-5-(1-cyanocyclopropyl)benzyl)sulfanyl)phenyl sulfamate], the inhibition at 10 µM was less than 10% in experiment [1] and 99.8 ± 0.1% in experiment [2] (setting [8]).
Turning to `N#CC1(c2cc(CSc3ccc(OS(N)(=O)=O)c(Cl)c3)cc(Cn3cncn3)c2)CCC1` [STX1794, 4-((3-((1H-1,2,4-triazol-1-yl)methyl)-5-(1-cyanocyclobutyl)benzyl)sulfanyl)-2-chlorophenyl sulfamate], the inhibition at 10 µM in experiment [1] came to 75.3 ± 0.6%; in experiment [2] (setting [8]), 99.7 ± 0.1%.
In the same order, the values of `CC(C)(C#N)c1cc(Cn2cncn2)cc(-c2ccc(OS(N)(=O)=O)cc2)c1` [STX1523, Sulfamic acid 3′-(cyano-dimethyl-methyl)-5′-[1,2,4]triazol-1-ylmethyl-biphenyl-4-yl ester] are 24.4 ± 3.1% and 99.7 ± 0.2%.
In the same order, the values of `COC(=O)c1cc(Cn2cncn2)cc(N(C)S(=O)(=O)c2ccc(OS(N)(=O)=O)cc2)c1` [STX1829, 3-[Methyl-(4-sulfamoyloxy-benzenesulfonyl)-amino]-5-[1,2,4]triazol-1-ylmethyl-benzoic acid methyl ester] are 17.6 ± 4% and 99.5 ± 0.2%.
As to `CC(C)(C#N)c1cc(CSc2ccc(OS(N)(=O)=O)c(Br)c2)cc(Cn2cncn2)c1` [STX1795, 4-((3-((1H-1,2,4-triazol-1-yl)methyl)-5-(2-cyanopropan-2-yl)benzyl)sulfanyl)-2-bromophenyl sulfamate], in experiment [2] (setting [8]), the inhibition at 10 µM was determined as 100%.
For the compound `CC(C)(C#N)c1cc(CSc2ccc(O)cc2)cc(Cn2cncn2)c1` [STX1022], half-maximal inhibition in experiment [2] (JEG3 cells) (IC50) required 1 nM.
On to `N#Cc1ccc(-c2ccc(OS(N)(=O)=O)cc2)cc1Cn1cncn1` [STX1522, Sulfamic acid 4′-cyano-3′-[1,2,4]triazol-1-ylmethyl-biphenyl-4-yl ester], for which the inhibition at 10 µM came to 96.1 ± 0.3% in experiment [1] and 98 ± 0.3% in experiment [2] (setting [7]).
For `CC12CCC3c4ccc(OS(N)(=O)=O)cc4CCC3C1CCC2=O` (stereo not drawn) [EMATE, oestrone-3-sulphamate], the “inhibition of E1-STS activity in intact MCF-7 cells” value in experiment [5] is “more than 99%”. The “oral uterotrophic activity relative to estradiol” value in experiment [4] (rats, oral, versus estradiol) is on record as 100 times.
On to `CC(C)(C#N)c1cc(CSc2ccc(OS(N)(=O)=O)c(Cl)c2)cc(Cn2cncn2)c1`, for which the inhibition at 10 µM in experiment [1] came out at 82.3 ± 0.8%; in experiment [2] (setting [8]) it was 99.9 ± 0.2%.
Regarding `CC(C)(C#N)c1cc(CSc2ccc(OS(N)(=O)=O)cc2)cc(Cn2cncn2)c1` [STX1023], the IC50 in experiment [1] (JEG3 cells) was more than 10000 nM; in experiment [2] (JEG3 cells) it was 3.5 nM. Further, the inhibition at 10 mg/kg in experiment [6] was 87%.
Regarding `CC(C)(C#N)c1cc(COc2ccc(OS(N)(=O)=O)cc2)cc(Cn2cncn2)c1`, the inhibition at 10 µM in experiment [1] is less than 10%; in experiment [2] (setting [8]) it was 99.8 ± 0.2%.
For `COC(=O)c1cc(Cn2cncn2)cc(NC(=O)c2ccc(OS(N)(=O)=O)cc2)c1` [STX1830, 3-(4-Sulfamoyloxy-benzoylamino)-5-[1,2,4]triazol-1-ylmethyl-benzoic acid methyl ester], the inhibition at 10 µM in experiment [1] is 33.4 ± 5.3%; in experiment [2] (setting [7]), 52.7 ± 6.7%.
As for `N#CC1(c2cc(CSc3ccc(OS(N)(=O)=O)cc3)cc(Cn3cncn3)c2)CCC1` [STX1731, 4-((3-((1H-1,2,4-triazol-1-yl)methyl)-5-(1-cyanocyclobutyl)benzyl)sulfanyl)phenyl sulfamate], the inhibition at 10 µM in experiment [1] turned out to be 21.4 ± 7.9%; in experiment [2] (setting [8]), 99.5 ± 0.2%.
Consider `CC(C)(C#N)c1cc(/C=C/c2ccc(OS(N)(=O)=O)cc2)cc(Cn2cncn2)c1` [STX1833, 4-(3-((1H-1,2,4-triazol-1-yl)methyl)-5-(2-cyanopropan-2-yl)styryl)phenyl sulfamate], for which, in experiment [1], the inhibition at 10 µM stood at 21.5 ± 4.7%.
